From ChEMBL document CHEMBL5223132, “Structure-activity relationships of mixed σ1R/σ2R ligands with antiproliferative and anticancer effects” (Bioorg Med Chem, 2022)
Each block holds one compound with its values, some of them ahead of it.

Assays:
[1] = system: SK-N-SH; assay: Antiproliferative activity against human SK-N-SH cells assessed as reduction in cell viability incubated for 48 hrs by MTT assay; type: functional, cell-based
[2] = system: PC-3; assay: Antiproliferative activity against human PC-3 cells assessed as reduction in cell viability incubated for 48 hrs by MTT assay; type: functional, cell-based; settings: PC-3, 48 h
[3] = molecular target: T1, Sigma intracellular receptor 2 (Rattus norvegicus, UniProt Q5U3Y7); assay: Displacement of [3H]DTG from sigma 2 receptor expressed in rat liver membranes assessed as inhibition constant in presence of (+)-pentazocine by radioligand binding assay; type: cell membranes, Membrane
T1 sequence (Q5U3Y7 whole entry): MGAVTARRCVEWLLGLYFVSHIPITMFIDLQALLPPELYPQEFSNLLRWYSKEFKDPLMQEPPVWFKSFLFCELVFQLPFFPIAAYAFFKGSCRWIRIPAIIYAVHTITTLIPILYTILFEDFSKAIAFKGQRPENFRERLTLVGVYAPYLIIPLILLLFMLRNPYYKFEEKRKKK

[4] = molecular target: T2, Sigma non-opioid intracellular receptor 1 (Cavia porcellus, UniProt Q60492); assay: Displacement of [3H]pentazocine from sigma 1 receptor expressed in guinea pig brain membranes assessed as inhibition constant by radioligand binding assay; type: cell membranes, Membrane
[5] = molecular target: ATP-dependent translocase ABCB1 (Homo sapiens, UniProt P08183); assay: Inhibition of P-gp transporter (unknown origin) expressed in dog MDCK-MDR1 assessed as inhibition of fluorescent Calcein-AM transport by fluorescence based assay; type: cell-based
[6] = molecular target: T3, Sigma intracellular receptor 2 (Homo sapiens, UniProt Q5BJF2); assay: Binding affinity to human sigma 2 receptor
[7] = molecular target: T4, Sigma non-opioid intracellular receptor 1 (Homo sapiens, UniProt Q99720); assay: Binding affinity to sigma 1 receptor (unknown origin)
[8] = molecular target: T3, Sigma intracellular receptor 2; assay: Binding affinity to sigma 2 receptor (unknown origin)
[9] = system: A-427; assay: Antiproliferative activity against human A-427 cells assessed as reduction in cell viability; type: functional, cell-based
[10] = molecular target: T3, Sigma intracellular receptor 2; assay: Binding affinity to sigma 2 receptor (unknown origin) expressed in human RT-4 cells; type: cell-based
[11] = system: 5637; assay: Antiproliferative activity against human 5637 cells assessed as reduction in cell viability; type: functional, cell-based
[12] = molecular target: T1, Sigma intracellular receptor 2; assay: Binding affinity to sigma 2 receptor expressed in rat liver; type: tissue-based
[13] = system: MCF7; assay: Antiproliferative activity against human MCF7 cells assessed as reduction in cell viability; type: functional, cell-based
[14] = molecular target: T3, Sigma intracellular receptor 2; assay: Displacement of [H3]DTG from sigma 2 receptor (unknown origin) by competition binding assay
[15] = molecular target: T4, Sigma non-opioid intracellular receptor 1; assay: Binding affinity to human sigma 1 receptor
[16] = system: SK-MEL-28; assay: Anti-proliferative against human SK-MEL-28 cells assessed as reduction in cell viability incubated for 48 hrs by MTT assay; type: functional, cell-based; settings: SK-MEL-28, 48 h
[17] = system: SK-MEL-28; assay: Anti-proliferative against human SK-MEL-28 cells assessed as reduction in cell viability incubated for 24 hrs by MTT assay; type: functional, cell-based; settings: SK-MEL-28, 24 h
[18] = molecular target: T2, Sigma non-opioid intracellular receptor 1; assay: Displacement of [3H]pentazocine from sigma 1 receptor expressed in guinea pig brain membranes assessed as inhibition constant incubated for 150 mins by radioligand binding assay; type: cell membranes, Membrane
[19] = molecular target: T1, Sigma intracellular receptor 2; assay: Displacement of [3H]DTG from sigma 2 receptor expressed in rat liver membranes assessed as inhibition constant incubated for 120 mins in presence of (+)-SKF10047 by radioligand binding assay; type: cell membranes, Membrane
[20] = system: MDA-MB-231; assay: Anti-migratory activity against human MDA-MB-231 cells assessed as reduction in cell migration at 10 uM and measured after 12 hrs by wound healing assay; type: functional; set-up: scale not given: the % may be the effect or the level left
[21] = system: MDA-MB-231; assay: Anti-invasive activity against human MDA-MB-231 cells assessed as decrease in cell invasion at 10 uM incubated for 24 hrs by 3D spheroid invasion assay; type: functional; set-up: scale not given: the % may be the effect or the level left
[22] = molecular target: T4, Sigma non-opioid intracellular receptor 1; assay: Displacement of [H3]DTG from sigma 1 receptor (unknown origin) by competition binding assay
[23] = Binding affinity to human sigma 1 receptor
[24] = Anti-proliferative against human U-87 MG cells assessed as reduction in cell viability incubated for 48 hrs by MTT assay; type: functional, cell-based, U-87MG ATCC
[25] = Anti-proliferative against human U-87 MG cells assessed as reduction in cell viability incubated for 72 hrs by MTT assay; type: functional, cell-based, U-87MG ATCC
[26] = Anti-proliferative against human U-87 MG cells assessed as reduction in cell viability incubated for 24 hrs by MTT assay; type: functional, cell-based, U-87MG ATCC
[27] = system: MDCK-MDR1; assay: Anticancer against dog MDCK-MDR1 cells assessed as reduction in cell viability at 50 uM incubated for 48 hrs in presence of doxorubicin by MTT assay; type: functional, Canis lupus familiaris
[28] = system: MDCK-MDR1; assay: Anticancer against dog MDCK-MDR1 cells assessed as reduction in cell viability at 50 uM incubated for 48 hrs by MTT assay; type: functional, Canis lupus familiaris
[29] = system: MDCK-MDR1; assay: Anticancer against dog MDCK-MDR1 cells assessed as reduction in cell viability at 30 uM incubated for 48 hrs in presence of doxorubicin by MTT assay; type: functional, Canis lupus familiaris
[30] = molecular target: T2, Sigma non-opioid intracellular receptor 1; assay: Binding affinity to sigma 1 receptor expressed in guinea pig brain; type: tissue-based
[31] = system: RPMI-8226; assay: Antiproliferative activity against human RPMI-8226 cells assessed as reduction in cell viability; type: functional, cell-based
[32] = molecular target: T4, Sigma non-opioid intracellular receptor 1; assay: Binding affinity to sigma 1 receptor (unknown origin) expressed in human RPMI-8226 cells; type: cell-based
[33] = Anti-proliferative against human U-87 MG cells assessed as reduction in cell viability at 40 uM incubated for 24 hrs by MTT assay; type: functional, U-87MG ATCC
[34] = system: RPMI-8226; assay: Anti-proliferative against human RPMI-8226 cells assessed as reduction in cell viability at 40 uM incubated for 24 hrs by MTT assay; type: functional
[35] = system: RPMI-8226; assay: Induction of apoptosis in human RPMI-8226 cells assessed as total apoptotic cells incubated for 48 hrs by annexin-V/propidium iodide staining based flow cytometry; type: functional
[36] = system: MCF7; assay: Antiproliferative activity against human MCF7 cells assessed as reduction in cell proliferation at 100 uM incubated for 48 hrs by MTT assay; type: functional; set-up: scale not given: the % may be the effect or the level left
[37] = molecular target: D(2) dopamine receptor (Homo sapiens, UniProt P14416); assay: Binding affinity to D2R receptor (unknown origin)
[38] = molecular target: T5, 5-hydroxytryptamine receptor 1A (Homo sapiens, UniProt P08908); assay: Binding affinity to 5-HT1A receptor (unknown origin) by […]
T5 sequence (P08908 whole entry): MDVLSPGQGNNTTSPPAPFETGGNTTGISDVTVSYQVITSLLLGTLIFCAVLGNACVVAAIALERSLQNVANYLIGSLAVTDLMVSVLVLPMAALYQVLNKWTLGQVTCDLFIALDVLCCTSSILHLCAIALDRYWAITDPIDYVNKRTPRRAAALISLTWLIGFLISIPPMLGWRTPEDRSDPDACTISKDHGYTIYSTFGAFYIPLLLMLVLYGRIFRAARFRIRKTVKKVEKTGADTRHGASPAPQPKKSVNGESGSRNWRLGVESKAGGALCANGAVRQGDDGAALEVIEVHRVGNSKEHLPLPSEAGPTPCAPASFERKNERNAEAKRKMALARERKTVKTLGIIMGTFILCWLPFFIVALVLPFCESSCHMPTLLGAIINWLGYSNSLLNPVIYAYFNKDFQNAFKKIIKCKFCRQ

T3 sequence (Q5BJF2 whole entry): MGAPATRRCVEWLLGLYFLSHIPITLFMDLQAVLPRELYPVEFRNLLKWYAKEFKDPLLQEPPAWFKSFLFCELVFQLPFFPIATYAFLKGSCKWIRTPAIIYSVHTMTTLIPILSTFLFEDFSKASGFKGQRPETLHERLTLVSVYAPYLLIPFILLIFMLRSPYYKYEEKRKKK
T4 sequence (Q99720 whole entry): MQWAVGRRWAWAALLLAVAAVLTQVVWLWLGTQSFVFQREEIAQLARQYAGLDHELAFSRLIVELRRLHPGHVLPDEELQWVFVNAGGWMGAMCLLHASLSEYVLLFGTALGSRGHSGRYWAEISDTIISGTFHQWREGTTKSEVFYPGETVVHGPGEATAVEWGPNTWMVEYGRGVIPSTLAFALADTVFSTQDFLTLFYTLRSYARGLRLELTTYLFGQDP
T2 sequence (Q60492 whole entry): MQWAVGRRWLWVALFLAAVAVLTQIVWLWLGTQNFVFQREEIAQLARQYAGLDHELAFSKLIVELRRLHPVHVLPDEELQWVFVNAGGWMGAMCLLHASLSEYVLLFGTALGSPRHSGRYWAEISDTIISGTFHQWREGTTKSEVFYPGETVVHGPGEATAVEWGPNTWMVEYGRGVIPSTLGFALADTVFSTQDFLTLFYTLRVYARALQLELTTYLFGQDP
Sequence of ATP-dependent translocase ABCB1 (P08183 whole entry): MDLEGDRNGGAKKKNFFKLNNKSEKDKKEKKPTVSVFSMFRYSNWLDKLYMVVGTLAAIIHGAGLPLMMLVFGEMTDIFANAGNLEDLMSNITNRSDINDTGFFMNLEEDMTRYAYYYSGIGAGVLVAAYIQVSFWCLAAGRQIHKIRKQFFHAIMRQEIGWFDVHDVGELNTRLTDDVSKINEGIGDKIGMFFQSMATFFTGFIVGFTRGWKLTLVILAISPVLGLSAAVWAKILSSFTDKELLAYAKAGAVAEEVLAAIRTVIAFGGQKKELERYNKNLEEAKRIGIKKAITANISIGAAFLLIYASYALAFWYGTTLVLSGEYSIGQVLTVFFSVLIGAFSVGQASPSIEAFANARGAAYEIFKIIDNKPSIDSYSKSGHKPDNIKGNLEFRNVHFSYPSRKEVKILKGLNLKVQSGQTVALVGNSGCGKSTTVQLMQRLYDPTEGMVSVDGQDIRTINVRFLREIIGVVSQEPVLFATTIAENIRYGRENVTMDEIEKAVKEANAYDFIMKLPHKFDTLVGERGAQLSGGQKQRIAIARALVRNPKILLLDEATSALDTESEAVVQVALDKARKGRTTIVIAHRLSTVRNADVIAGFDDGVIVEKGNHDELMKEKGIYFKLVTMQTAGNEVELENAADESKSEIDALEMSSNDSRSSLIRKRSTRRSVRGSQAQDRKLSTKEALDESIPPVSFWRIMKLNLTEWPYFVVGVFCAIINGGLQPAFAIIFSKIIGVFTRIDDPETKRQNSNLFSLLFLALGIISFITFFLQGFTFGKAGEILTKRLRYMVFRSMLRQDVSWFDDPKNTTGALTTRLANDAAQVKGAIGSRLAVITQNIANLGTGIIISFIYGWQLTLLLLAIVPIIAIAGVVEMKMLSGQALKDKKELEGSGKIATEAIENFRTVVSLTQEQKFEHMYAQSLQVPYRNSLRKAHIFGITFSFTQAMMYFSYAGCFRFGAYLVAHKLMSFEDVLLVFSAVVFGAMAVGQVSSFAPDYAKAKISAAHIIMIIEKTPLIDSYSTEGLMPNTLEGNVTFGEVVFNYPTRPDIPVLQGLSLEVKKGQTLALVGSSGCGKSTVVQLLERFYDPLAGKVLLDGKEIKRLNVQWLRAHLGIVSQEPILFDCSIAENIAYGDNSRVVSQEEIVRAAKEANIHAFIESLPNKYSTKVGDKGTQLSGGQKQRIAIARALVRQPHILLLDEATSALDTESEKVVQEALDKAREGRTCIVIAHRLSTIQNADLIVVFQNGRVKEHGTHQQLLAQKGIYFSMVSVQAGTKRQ
Sequence of D(2) dopamine receptor (P14416 whole entry): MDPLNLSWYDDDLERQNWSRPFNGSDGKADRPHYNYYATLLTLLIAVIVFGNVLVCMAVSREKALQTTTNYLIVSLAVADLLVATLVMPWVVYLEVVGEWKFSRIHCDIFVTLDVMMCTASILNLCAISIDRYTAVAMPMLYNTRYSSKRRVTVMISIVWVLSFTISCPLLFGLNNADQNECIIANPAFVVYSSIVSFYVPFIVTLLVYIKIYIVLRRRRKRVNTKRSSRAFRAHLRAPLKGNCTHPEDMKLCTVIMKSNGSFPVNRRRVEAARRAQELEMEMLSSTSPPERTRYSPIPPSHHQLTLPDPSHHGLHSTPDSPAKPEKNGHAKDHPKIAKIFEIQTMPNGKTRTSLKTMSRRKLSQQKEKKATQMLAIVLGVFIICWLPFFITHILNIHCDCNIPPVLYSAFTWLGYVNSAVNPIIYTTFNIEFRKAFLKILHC

Ki [8]: 2 nM
Ki [7]: 23.9 nM
SMILES: COc1cc2c(cc1OC)CN(CCCCNC(=O)c1cc(C)ccc1OCC[18F])CC2

Ki [10]: 43 nM
Ki [12]: 73 nM
IC50 [13]: 8830 nM
SMILES: OCC[C@H]1CN(CC2CCCCC2)CCN1Cc1ccc(-c2ccccc2)cc1
IC50 [9]: 9250 nM
IC50 [11]: 10500 nM

Ki [10]: 39 nM
Ki [12]: 38 nM
IC50 [13]: > 20000 nM
SMILES: OCC[C@@H]1CN(CC2CCCCC2)CCN1Cc1ccc(-c2ccccc2)cc1
IC50 [9]: 3460 nM
IC50 [11]: 6570 nM

IC50 [16]: 22000 nM
IC50 [17]: 52000 nM
Ki [18]: 537 nM
Ki [19]: 19.5 nM
SMILES: c1ccc(CC2CCN(CC3CSC4(CCCCC4)S3)CC2)cc1 (stereo not given)

Ki [23]: 1.7 nM
Ki [6]: 25.2 nM
SMILES: O=C(NC1CCN(Cc2ccccc2)CC1)c1ccc(I)cc1

Ki [3]: 285 nM
Ki [4]: 16 nM
SMILES: CCCCCCCNCCC1CCN(C)C(c2ccccc2)C1 (stereo not given)

Ki [3]: 36 nM
Ki [4]: 2.4 nM
SMILES: CCCCCCNCC[C@H]1CCC[C@@H](c2ccccc2)O1

Ki [3]: 57 nM
Ki [4]: 0.95 nM
SMILES: CCCCCCNCC[C@@H]1CCC[C@H](c2ccccc2)O1

Ki [30]: 1.9 nM
Ki [10]: 16 nM
IC50 [31]: 1290 nM
Ki [32]: 29 nM
Ki [12]: 26 nM
IC50 [13]: 9770 nM
SMILES: CCN1CCN(Cc2cccc3ccccc23)[C@@H](CCO)C1
IC50 [9]: 9120 nM
IC50 [11]: 3650 nM

Ki [30]: 0.9 nM
Ki [10]: 37 nM
IC50 [31]: 8530 nM
Ki [32]: 7.5 nM
Ki [12]: 14 nM
IC50 [13]: 9050 nM
SMILES: CCN1CCN(Cc2cccc3ccccc23)[C@H](CCO)C1
Activity [35]: 32%
IC50 [9]: 5020 nM
IC50 [11]: 4790 nM

Ki [7]: 17 nM
Ki [37]: 10000 nM
SMILES: CCCN1CCC(c2cccc(S(C)(=O)=O)c2)CC1 [PRIDOPIDINE]

Second part, the compound before the results:

SMILES: Fc1cccc(F)c1[C@H]1CC[C@@H](N2CCN(C3CCCCC3)CC2)CC1
EC50 [1]: 12100 nM
EC50 [2]: 40600 nM
Ki [3]: 14.1 nM
Ki [4]: 0.63 nM
EC50 [5]: 7300 nM

SMILES: CCCN(CCC)CCc1ccc(OC)c(OCCc2ccccc2)c1
Ki [6]: 170 nM

SMILES: O=c1sc2cc(CCCF)ccc2n1CCN1CCCCCC1
Ki [7]: 0.0025 nM

SMILES: O=C(OCCN1CCOCC1)C1(c2ccccc2)CCCCC1
Ki [6]: 32100 nM

SMILES: COc1ccc(C)cc1NC(=O)OC1CC2CCCC(C1)N2CCCCCCCCCCN (stereo not given)
Ki [14]: 7.7 nM

SMILES: CCCN1CCC=C(c2cc(-c3ccc(C)cc3)no2)C1
Ki [6]: 1380 nM
Ki [15]: 0.08 nM

SMILES: O=C(CCCN1CCCN(c2ccc(Cl)cc2)CC1)c1ccc(F)cc1
Activity [20]: 95%
Activity [21]: 49%

SMILES: CCN(C/C=C\c1ccc(C2CCCCC2)c(Cl)c1)C1CCCCC1
Ki [22]: 2 nM
IC50 [14]: 45 nM

SMILES: CCN(CC)CCNC(=O)c1ccc(OC)c([123I])c1
Ki [8]: 206 nM
Ki [7]: 11.8 nM

SMILES: CN1C(=O)CCc2cc(CNC(C)(C)[C@@H](O)c3ccccc3)ccc21
Ki [22]: > 1000 nM
Ki [14]: 4 nM

SMILES: C1=C(c2c[nH]c3ncccc23)CCN(CCCc2ccccc2)C1
Ki [22]: 29 nM

SMILES: C/C(=C\CN1CCN(Cc2ccc(C(F)(F)F)cc2)CC1)c1ccccc1
IC50 [24]: 22300 nM
IC50 [25]: 19000 nM
IC50 ([26]; Homo sapiens, U-87 MG, 24 h): 28300 nM
IC50 ([26]; u-87mg atcc): 22300 nM

SMILES: C/C(=C\CN1CCN(C(=O)C2CCCC2)CC1)c1ccccc1
IC50 [24]: 39000 nM
IC50 [25]: 11200 nM
IC50 ([26]; Homo sapiens, U-87 MG, 24 h): 39000 nM

SMILES: COc1cccc(OC)c1[C@H]1CC[C@@H](N2CCN(C3CCCCC3)CC2)CC1
Activity [27]: 90%
EC50 [1]: 32500 nM
EC50 [2]: 31300 nM
Ki [3]: 7.92 nM
Activity [28]: 50%
Ki [4]: 0.26 nM
EC50 [5]: 800 nM
Activity [29]: 70%

SMILES: C/C(=C\CN1CCN(Cc2ccccc2)CC1)c1ccc2ccccc2c1
Activity [33]: 34%
Activity [34]: 65%

SMILES: c1ccc(CN2CCN(CC3CSC4(CCCCC4)S3)CC2)cc1 (stereo not given)
IC50 [16]: 38000 nM
IC50 [17]: 50000 nM
Ki [18]: 6.16 nM
Ki [19]: 75.9 nM

SMILES: COc1ccc(/C(C)=C/CN2CCN(Cc3ccc(C(F)(F)F)cc3)CC2)cc1
IC50 [24]: 24100 nM
IC50 [25]: 20600 nM
IC50 ([26]; Homo sapiens, U-87 MG, 24 h): 27600 nM
IC50 ([26]; u-87mg atcc): 24100 nM

SMILES: OC(CCCN1CCC(O)(c2ccc(Cl)cc2)CC1)c1ccc(F)cc1 (racemic) [HYDROXYHALOPERIDOL]
Activity [36]: 98%

SMILES: O=C(CN1CCC(CN2Cc3ccccc3C2=O)CC1)c1ccc(F)cc1 [ROLUPERIDONE]
Ki [38]: 7.53 nM
